According to patent US5385921A, “Pharmaceutical formulations” (Aktiebolaget Astra, priority 1990, dated 1995):

Columns and labels:
[1] = tested on: Pentylenetetrazol (PTZ) seizures; test: Pentylenetetrazol (PTZ) seizures: seizure threshold in rats; type: in vivo, male Wistar rats; settings: Rattus norvegicus, 0.25 h, drug 15 min before PTZ infusion into tail vein, weights refer to the free base, read-out: PTZ seizures TI50 (dose required to increase seizure threshold by 50%)
Experimental: (§1) Animals used were male Wistar rats (140-170 g) and male TO mice (18-30 g).
(§2) All drugs were dissolved in isotonic saline. Weights refer to the free base.
Seizure threshold was assessed in rats by measurement of the dose of PTZ required to elicit a seizure when infused through a tail vein. PTZ (10 mg/ml) was infused into the tail vein at a rate of […] and the time to the first clonic convulsion measured. Seizure threshold was calculated as described by Green & Murray, J. Pharm. Pharmacol. 1989, 41: 879-880. Drugs were administered 15 min before the PTZ. Data are expressed as the dose required to increase seizure threshold by 50% (TI50).

locomotor activity = test: Sedation studies: suppression of locomotor activity in mice; type: in vivo, male TO mice; settings: Mus musculus, recording starts 20 min after administration, 30 min period, weights refer to the free base, read-out: Sedation ED50 (dose required to reduce locomotor activity by 50%)
Experimental: as §1, §2
The test drug was administered to mice and starting 20 min later locomotor activity was recorded for a 30 min period. Activity was monitored using an infra-red light beam interruption system in cages measuring 40 cm×40 cm. Data are expressed as the dose required to reduce locomotor activity by 50% (ED50).

[2] = tested on: N-methyl-D-aspartate (NMDA) seizures; test: N-methyl-D-aspartate (NMDA) seizures: tonic convulsions in mice; type: in vivo, male TO mice; settings: Mus musculus, drug 15 min before NMDA 300 mg/kg i.p., weights refer to the free base, read-out: NMDA seizures ED50 (dose required to decrease the incidence of tonic convulsions by 50%)
Experimental: as §1, §2
Drugs were adminstered 15 min before the NMDA, and data are expressed as the dose required to decrease the incidence of tonic convulsions by 50% (ED50).

[3] = tested on: CA1/CA2 hippocampal neurones; test: Neuroprotection studies: damage to CA1/CA2 hippocampal neurones in gerbils after carotid artery occlusion; type: in vivo, gerbil
Experimental: as §2
Ischaemia was induced in gerbils, by occlusion of the carotid arteries following the accepted general procedure as described in, for example, EP 230 370 and R. Gill, A. C. Foster and G. N. Woodruff, J. Neuroscience, 1987, 7, 3343-3349.
Ischaemia was induced in the animals by 5 minute occlusion of both carotid arteries. Body temperature was maintained at 37° C. throughout. Restoration of blood flow after occlusion was checked visually and the animals were allowed to survive for 4 days. The extent of neuronal degeneration in the hippocampus was then assessed. The test compounds were adminstered (i.p.) as a single dose 60 minutes following occlusion. No administration was made prior to the occlusion.

SMILES	ED50 [1] [mg/kg]	ED50 (locomotor activity) [mg/kg]	ED50 [2] [mg/kg]	% Damage to CA1/CA2 Hippocampal Neurones ([3]; 100 mg/kg i.p. single dose 60 minutes after induction of ischaemia, n=8, assessed after 4 days, untreated (None) 92 ±7) [%]	reduction of damage to the CA1/CA2 hippocampal neurones (in words) ([3]; i.p., single dose 60 minutes following occlusion)
Cc1ncsc1C(O)CCl (centres unmarked) [5-(2-Chloro-1-hydroxyethyl)-4-methylthiazole ethandisulphonate]	34	52	40	–	–
Cc1ncsc1C(O)CCl.Cl (centres unmarked) [5-(2-chloro-1-hydroxyethyl)-4-methylthiazole hydrochloride salt]	–	–	–	64 ±8	effective in reducing the damage to the CA1/CA2 hippocampal neurones
